Experimental data reported in patent US20100210602A1, “PhoU (PerF), A P[…] INVOLVED IN [sequence] FORMATION AND TOLERANCE TO MULTIPLE ANTIBIOTICS AND [sequence] AS A DRUG TARGET FOR [sequence] BACTERIA” (priority 2006, published 2010).
Values after ≈ are worked out from the molar mass of the structure shown. Like-named read-outs stand apart in the source and are kept apart here.

What was measured:
[1] = test system: H37Rv; test: microbe, parasite or virus in culture; format: cell-based, M. tuberculosis; details: Mycobacterium tuberculosis, 240 h
[2] = test system: wild type strain W3110; test: microbe, parasite or virus in culture; format: cell-based, E. coli; details: for CFU remaining: stationary phase
[3] = test system: H37Rv; test: microbe, parasite or virus in culture; format: cell-based, M. tuberculosis; details: Mycobacterium tuberculosis
[4] = test system: parent strain H37Rv; format: cell-based, M. tuberculosis
[5] = test system: PhoU mutant JHU-313; format: cell-based, E. coli
[6] = biological target: PhoY2 (Mycobacterium tuberculosis, UniProt P9WI95); test: EnzChek phosphatase assay, FDA approved compound library screen; format: biochemical, M. tuberculosis; details: for inhibition of PhoY2 enzyme activity in library screen: 50 μM final concentration, 30 min, 60 min and overnight
Sequence of PhoY2 (P9WI95 whole entry): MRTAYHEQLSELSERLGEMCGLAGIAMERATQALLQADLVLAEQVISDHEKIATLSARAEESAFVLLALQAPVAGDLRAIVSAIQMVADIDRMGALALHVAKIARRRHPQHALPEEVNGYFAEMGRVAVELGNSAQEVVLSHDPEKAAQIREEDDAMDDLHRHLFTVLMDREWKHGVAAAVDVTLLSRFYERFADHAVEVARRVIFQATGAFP
Description: The FDA approved compound library consisting of about 3000 clinical compounds (50 μM final concentration) was screened for inhibitory activity for M. tuberculosis PhoU homolog PhoY2 for phosphatase activity using the EnzChek phosphatase assay kit in a 96 well plate format. The assay was run for 30 min, 60 min and overnight when the plates were read in a fluorescence plate reader (Perkin Elmer). Aurintricarboxylic acid, a known phosphatase inhibitor, was included as a positive control.

[7] = test system: PhoU mutant; test: Weak acid susceptibility on LB agar pH 5.0; format: cell-based, E. coli; details: salicylic acid 80 μg/ml, pyrazinoic acid 230 μg/ml, overnight 37° C.
[8] = test system: wild type strain W3110; test: Weak acid susceptibility on LB agar pH 5.0; format: cell-based, E. coli; details: salicylic acid 80 μg/ml, pyrazinoic acid 230 μg/ml, overnight 37° C.
[9] = test system: M. tuberculosis H37Rv; test: Killing of old stationary phase cells by PhoY2 inhibitors with TB drugs (CFU); format: cell-based; details: one and two week exposure, 37° C.
Description: PhoY2 phosphatase activity inhibitors identified in the screen were tested for their ability to decrease persister formation in M. tuberculosis. […] After one and two week exposure, CFU (colony forming unit) was measured.

[10] = test system: JHU-313 containing pVector; test: Kirby-Bauer paper disc assay, zone inhibition
Description: (§1) The sensitivity of the bacterial strains to antibiotics or peroxide was determined by Kirby-Bauer's paper disc assay as measured by zone inhibition in millimeters.
(§2) The sensitivity of bacterial strains to antibiotics or stresses was also assessed by the Kirby-Bauer method (2) using paper discs. E. coli bacteria were grown to log phase (10^8 bacteria) in LB broth. An inoculum from this culture was spread across the surfaces of LB plates to provide confluent growth. Nitrocellulose discs (7 mm in diameter) soaked with appropriate antibiotics or stress agents (100 mM H2O2, were placed on the agar surface). After incubation at 37° C. for 48 h, the diameter of the zone of growth inhibition was measured and scored according to the size of the zone of inhibition, which is directly proportional to the sensitivity of the organism to the antibiotic.

[11] = test system: JHU-313 containing pVector; test: MIC/MBC by serial two-fold dilutions in LB broth; format: cell-based, E. coli; details: 16 h at 37° C.
[12] = test system: JHU-313; test: Kirby-Bauer paper disc assay, zone inhibition
Description: as §1, §2

[13] = test system: PhoU mutant (JHU-313); test: MIC/MBC by serial two-fold dilutions in LB broth; format: cell-based, E. coli; details: 16 h at 37° C.
[14] = test system: wild type strain W3110; test: microbe, parasite or virus in culture; format: cell-based, E. coli; details: LB broth, 16 h at 37° C.
[15] = test system: JHU-313 containing pPhoU; test: MIC/MBC by serial two-fold dilutions in LB broth; format: cell-based, E. coli; details: 16 h at 37° C.
[16] = test system: W3110
Description: as §1, §2

[17] = test system: PhoU mutant (JHU-313); test: Sequential antibiotic exposure of ampicillin persisters (CFU); format: cell-based, E. coli; details: 20 h after 1.5 h ampicillin pre-exposure; ampicillin 100, gentamicin 20, trimethoprim 16, norfloxacin 5 μg/ml
[18] = test system: wild type strain W3110; format: cell-based, E. coli; details: 20 h after 1.5 h ampicillin pre-exposure; ampicillin 100, gentamicin 20, trimethoprim 16, norfloxacin 5 μg/ml
[19] = test system: JHU-313 containing pPhoU; test: Kirby-Bauer paper disc assay, zone inhibition
Description: as §1, §2

[20] = biological target: T1, PhoY1 (Mycobacterium tuberculosis, UniProt P9WI97); test: EnzChek phosphatase assay; format: biochemical, M. tuberculosis; details: pH 5.5
T1 sequence (P9WI97 1-221): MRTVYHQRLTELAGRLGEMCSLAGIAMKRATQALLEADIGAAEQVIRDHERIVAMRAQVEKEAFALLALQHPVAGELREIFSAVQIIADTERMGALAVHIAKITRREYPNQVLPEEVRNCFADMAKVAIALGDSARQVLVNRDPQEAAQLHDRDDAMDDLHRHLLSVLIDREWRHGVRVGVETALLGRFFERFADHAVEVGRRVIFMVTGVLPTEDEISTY

[21] = biological target: T2, E. coli PhoU (Escherichia coli, UniProt P0A9K7); test: EnzChek phosphatase assay, DiFMUP substrate, pH 5.5; format: biochemical; details: pH 5.5, DiFMUP
T2 construct: His; made in house
T2 sequence (P0A9K7 whole entry): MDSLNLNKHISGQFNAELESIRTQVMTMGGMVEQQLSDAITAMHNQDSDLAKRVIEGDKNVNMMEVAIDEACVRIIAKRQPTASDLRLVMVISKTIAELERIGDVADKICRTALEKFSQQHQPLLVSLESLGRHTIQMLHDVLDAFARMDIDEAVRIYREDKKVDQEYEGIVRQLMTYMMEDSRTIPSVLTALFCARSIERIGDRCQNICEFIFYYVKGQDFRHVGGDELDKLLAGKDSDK
Description: In order to test PhoU for phosphatase activity, purified PhoU protein was analyzed using the EnzChek phosphatase assay kit (Invitrogen, Molecular Probes). Phosphatase activity was continuously monitored at acidic pH 5.5 and 6,8-difluoro-4-methylumbelliferyl phosphate (DiFMUP) was used as the substrate according to manufacturer's instruction.
Since most phosphatases have a metal requirement for activity, using either Mg^2+ or Zn^2+, the effects of various metal ions on the PhoU phosphatase enzyme activity were examined at acidic pH 5.5 and using DiFMUP as a substrate.
Phosphatase assays were performed using purified recombinant wild type and mutant PhoU proteins.

Molecule: NNC(=O)c1ccncc1 [INH, isoniazid]
- MIC ([1]; 10 days at 37° C.): 0.2 mg/L (≈ 1.46 µM)

Molecule: NC(=O)c1cnccn1 [PZA, pyrazinamide]
- MIC ([2]; Escherichia coli, W3110, normal growing E. coli, pH 5.0): > 2000 mg/L
- CFU left ([2]; pH 5): about 10^6 CFU/ml
- CFU remaining ([2]; 500 μg/ml, pH 5.0, 1 week): 5×10^4 CFU/ml
- CFU remaining ([2]; 2 mg/ml, pH 5.0, day 6): 6.7×10^6 CFU/ml
- MBC ([3]; pH 5.9, read-out: MBC): 400 mg/L (≈ 3250 µM)
- MIC ([3]; pH 5.9, read-out: MIC): 200 mg/L (≈ 1620 µM)
- MIC ([1]; pH 5.6, pH5.6, 10 days at 37° C.): 200 mg/L (≈ 1620 µM)
- CFU/ml 3 day ([4]; 200 μg/ml): 3.1 × 10^5 CFU/ml
- CFU/ml 9 day ([4]; 200 μg/ml): 5.3 × 10^3 CFU/ml
- killing of culture ([5]; pH 5): completely killed
- viable bacteria left ([5]; stationary phase, 500 μg/ml, pH 5.0, 1 week): no viable bacteria left
- sterilization of culture ([5]; stationary phase, 2 mg/ml, pH 5.0, day 6): completely sterilized

Molecule: CO[C@H]1/C=C/O[C@@]2(C)Oc3c(C)c(O)c4c(O)c(c(/C=N/N5CCN(C)CC5)c(O)c4c3C2=O)NC(=O)/C(C)=C\C=C\[C@H](C)[C@H](O)[C@@H](C)[C@@H](O)[C@@H](C)[C@H](OC(C)=O)[C@@H]1C [RIF, rifampin]
- MBC [3]: 0.2 mg/L (≈ 0.243 µM)
- MIC [3]: 0.1 mg/L (≈ 0.122 µM)
- MIC ([1]; 10 days at 37° C.): 0.2 mg/L (≈ 0.243 µM)
- CFU/ml 3 day ([4]; 8 μg/ml): 3.37 × 10^5 CFU/ml

Molecule: C1CNCCN1 [piperazine]
- inhibition of PhoY2 enzyme activity in library screen [6]: inhibit PhoY2 enzyme activity

Molecule: CN1CCCN=C1/C=C/c1cccs1 [pyrantel pamoate]
- inhibition of PhoY2 enzyme activity in library screen [6]: inhibit PhoY2 enzyme activity

Molecule: O=C(O)c1cnccn1 [pyrazinoic acid]
- growth on LB agar with weak acid [7]: lack of growth at ⅓ MIC
- growth on LB agar with weak acid [8]: resistant

Molecule: O=C(O)c1ccccc1O [salicylic acid]
- growth on LB agar with weak acid [7]: lack of growth at ⅓ MIC
- growth on LB agar with weak acid [8]: resistant

Molecule: Pyrantel tartrate
- enhancement of INH, RIF or PZA activity [9]: could enhance the activity of INH, RIF or PZA

Molecule: gentamicin
- zone inhibition ([10]; 0.1 μg/ml): 22 mm
- zone inhibition ([10]; 0.5 μg/ml): 29 mm
- zone inhibition ([10]; 2 μg/ml): 30 mm
- zone inhibition ([10]; 10 μg/ml): 31 mm
- MBC [11]: 2.5 mg/L
- MIC [11]: 1.25 mg/L
- zone inhibition ([12]; 0.1 μg/ml): 20 mm
- zone inhibition ([12]; 0.5 μg/ml): 22 mm
- zone inhibition ([12]; 2 μg/ml): 26 mm
- zone inhibition ([12]; 10 μg/ml): 27 mm
- MBC [13]: 2.5 mg/L
- MIC [13]: 1.25 mg/L
- MBC [14]: 5 mg/L
- MIC [14]: 2.5 mg/L
- MBC [15]: 5 mg/L
- MIC [15]: 2.5 mg/L
- zone inhibition ([16]; 0.1 μg/ml): 14 mm
- zone inhibition ([16]; 0.5 μg/ml): 20 mm
- zone inhibition ([16]; 2 μg/ml): 22 mm
- zone inhibition ([16]; 10 μg/ml): 25 mm
- CFU after second antibiotic exposure [17]: 2 × 10^3 CFU/ml
- CFU after second antibiotic exposure [18]: 5 × 10^5 CFU/ml
- zone inhibition ([19]; 0.1 μg/ml): 17 mm
- zone inhibition ([19]; 0.5 μg/ml): 22 mm
- zone inhibition ([19]; 2 μg/ml): 24 mm
- zone inhibition ([19]; 10 μg/ml): 28 mm

Molecule: phosphate
- effect on PhoY2 phosphatase activity ([6]; pH 5.5): inhibited
- effect on PhoY1 phosphatase activity [20]: inhibited
- effect on PhoU phosphatase activity [21]: inhibit the phosphatase activity
